Data as given in article PMC6175941, “Hydrophobic alkyl chains substituted to the 8-position of cyclic nucleotides enhance activation of CNG and HCN channels by an intricate enthalpy - entropy compensation” (Scientific Reports, 2018).

Key:
[1] = system: CNGA2:CNGA4:CNGB1b channels; parameters: method as in PMID 17665892; settings: cited from earlier work
[2] = molecular target: T1, homotetrameric CNGA2 channels (Rattus norvegicus, UniProt Q00195); experiment: Concentration-activation relationship of homotetrameric CNGA2 channels, inside-out patches of Xenopus oocytes; type: cell-based
T1 construct: expressed in transfected cells; host or cells: Xenopus laevis oocytes injected with cRNA; inside-out patches
T1 sequence (Q00195 1-664): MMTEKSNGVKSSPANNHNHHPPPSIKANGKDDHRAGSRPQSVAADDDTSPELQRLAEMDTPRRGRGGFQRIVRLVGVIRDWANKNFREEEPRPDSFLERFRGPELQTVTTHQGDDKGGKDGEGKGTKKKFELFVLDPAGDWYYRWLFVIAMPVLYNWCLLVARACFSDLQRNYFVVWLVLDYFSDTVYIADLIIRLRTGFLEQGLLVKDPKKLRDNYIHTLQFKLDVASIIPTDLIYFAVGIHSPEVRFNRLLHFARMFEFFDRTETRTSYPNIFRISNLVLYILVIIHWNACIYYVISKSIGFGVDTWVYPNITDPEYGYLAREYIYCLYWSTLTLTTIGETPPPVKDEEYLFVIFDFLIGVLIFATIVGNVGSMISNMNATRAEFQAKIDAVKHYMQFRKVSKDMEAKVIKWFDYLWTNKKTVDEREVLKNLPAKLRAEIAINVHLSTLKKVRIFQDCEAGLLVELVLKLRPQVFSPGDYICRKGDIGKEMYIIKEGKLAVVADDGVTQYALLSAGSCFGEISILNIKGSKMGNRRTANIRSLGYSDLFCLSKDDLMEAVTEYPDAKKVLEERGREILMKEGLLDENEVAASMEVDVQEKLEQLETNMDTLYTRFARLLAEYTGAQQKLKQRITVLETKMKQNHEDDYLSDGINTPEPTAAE
Experimental: (§1) For each cNMP derivative a complete concentration-activation relationship was recorded, and the data points were fitted with the Hill equation (equation 1) yielding the concentration of half maximum activation (EC50) and the Hill coefficient H (Fig. 1b,c).
(§2) The subunits CNGA2 (accession No. AF126808), CNGA4 (accession No. U12623) and CNGB1b (accession No. AF068572) of rat olfactory channels as well as mouse HCN2 channels (NM008226) were subcloned in front of the T7 promoter of pGEMHEnew. The respective cRNAs were produced by using the mMESSAGE mMACHINE T7 Kit (Ambion, Austin, TX).
(§3) Oocytes at stages IV and V were injected with 50–130 ng of cRNA encoding either CNGA2, CNGA2:CNGA4:CNGB1b (2:1:1 ratio) or HCN2 channels either manually of or by means of an injection robot (RoboInject®). The injected oocytes were incubated at 18 °C for up to 6 days in Barth’s solution containing (in mM) 84 NaCl, 1 KCl, 2.4 NaHCO3, 0.82 MgSO4, 0.41 CaCl2, 0.33 Ca(NO3)2, 7.5 TRIS, cefuroxime (4.0 µg × ml^−1), and penicillin/streptomycin (100 µg × ml^−1), pH 7.4.
(§4) Macroscopic currents were recorded from inside-out patches of the oocytes by using standard patch-clamp techniques. The patch pipettes were pulled from quartz tubing (P-2000, Sutter Instrument, Novato, USA) with an outer and inner diameter of 1.0 and 0.7 mm (VITROCOM, New Jersey, USA). The corresponding pipette resistance was 0.9–2.3 MΩ. The bath and pipette solution contained (in mM): 150 KCl, 1 EGTA, 5 Hepes (pH 7.4 with KOH) for CNG measurements. For HCN measurements the bath solution contained 100 mM KCl, 10 mM EGTA, 10 mM HEPES (pH 7.2) and 120 mM KCl, 10 mM HEPES, and 1.0 mM CaCl2 (pH 7.2) in the pipette. Recording was carried out at room temperature using an Axopatch 200B amplifier (Axon Instruments, Foster City, CA). Electrophysiology was controlled by the Patchmaster-software (HEKA Elektronik Dr. Schulze GmbH, Lambrecht, Germany). The sampling rate was 5 kHz and the filter implemented in the amplifier (4-pole Bessel) was set to 2 kHz. Measurements in HCN2 channels were generally started 3.5 min after patch excision to minimize channel run down during the measurement[14],[27],[70]. The solutions with the ligand concentrations to be tested were applied via a multi-barrel device to the patches with a flow rate of 0.8 to 1.2 ml/min.
(§5) I is the actual current amplitude and Imax the maximum current amplitude at a saturating cNMP concentration specified for each cNMP and channel. EC50 is the cNMP concentration generating the half maximum current and H the Hill coefficient.

[3] = molecular target: T2, heterotetrameric CNGA2:CNGA4:CNGB1b channels (Rattus norvegicus, UniProt A0A8I5ZN27+Q00195+Q64359); experiment: Concentration-activation relationship of heterotetrameric CNGA2:CNGA4:CNGB1b channels, inside-out patches of Xenopus oocytes; type: cell-based; settings: heterotetrameric CNGA2:CNGA4:CNGB1b channels, mean; for EC50: late current at +10 mV
T2 construct: expressed in transfected cells; host or cells: Xenopus laevis oocytes co-injected with cRNAs (2:1:1); inside-out patches
Experimental: as §1, §2, §3, §4, §5

CNGA2 channels = molecular target: T3, CNGA2 channels (Rattus norvegicus, UniProt Q00195); experiment: Activation and deactivation kinetics by concentration jumps, CNGA2 channels; type: cell-based
T3 construct: expressed in transfected cells; host or cells: Xenopus laevis oocytes injected with cRNA; inside-out patches
T3 sequence (Q00195 1-664): T1 sequence (Q00195 1-664)
Text: (§6) We applied concentration jumps from zero to a defined level and back to zero, yielding the time constants τa and τd, respectively (c.f. Methods section). If the enhancement of the apparent affinity is caused by solely accelerating the binding rate, τa would be decreased and τd would be unaffected. Conversely, if the hydrophobic alkyl chain enhances the apparent affinity by solely decelerating the unbinding rate, τd would be increased and τa could be increased preferentially at lower concentrations.
(§7) In experiments designed to record activation and deactivation kinetics in CNG channels, theta-glass pipettes were used in which one barrel contained control solution and the other barrel the test solution supplemented with the ligand. The theta-glass pipette was mounted on a piezo actuator which was controlled by the computer controlling the voltage protocols. The effective switch time of the solution exchange, t10–90, determined by an open patch pipette and different solutions in the barrels, was negligible compared to the time courses of activation and deactivation to be considered. […]
(§8) The speed of activation and deactivation was determined by fitting the respective time courses with single exponentials yielding the time constant τ. […] To quantify the time course at a given cNMP concentration for a number of measurements τwm and τ were treated equally. […]

[4] = molecular target: T4, CNGA2:CNGA4:CNGB1b channels (Rattus norvegicus, UniProt A0A8I5ZN27+Q00195+Q64359); experiment: Activation and deactivation kinetics by concentration jumps, CNGA2:CNGA4:CNGB1b channels; type: cell-based
T4 construct: expressed in transfected cells; host or cells: Xenopus laevis oocytes co-injected with cRNAs (2:1:1); inside-out patches
Text: as §6, §7, §8

[5] = molecular target: T5, homotetrameric HCN2 channels (Mus musculus, UniProt O88703); experiment: Concentration-activation relationship of homotetrameric HCN2 channels, inside-out patches of Xenopus oocytes; type: cell-based; settings: homotetrameric HCN2 channels, mean; for EC50: pre-activation at -130 mV, instantaneous current at -100 mV
T5 construct: expressed in transfected cells; host or cells: Xenopus laevis oocytes injected with cRNA; inside-out patches
T5 sequence (O88703 1-863): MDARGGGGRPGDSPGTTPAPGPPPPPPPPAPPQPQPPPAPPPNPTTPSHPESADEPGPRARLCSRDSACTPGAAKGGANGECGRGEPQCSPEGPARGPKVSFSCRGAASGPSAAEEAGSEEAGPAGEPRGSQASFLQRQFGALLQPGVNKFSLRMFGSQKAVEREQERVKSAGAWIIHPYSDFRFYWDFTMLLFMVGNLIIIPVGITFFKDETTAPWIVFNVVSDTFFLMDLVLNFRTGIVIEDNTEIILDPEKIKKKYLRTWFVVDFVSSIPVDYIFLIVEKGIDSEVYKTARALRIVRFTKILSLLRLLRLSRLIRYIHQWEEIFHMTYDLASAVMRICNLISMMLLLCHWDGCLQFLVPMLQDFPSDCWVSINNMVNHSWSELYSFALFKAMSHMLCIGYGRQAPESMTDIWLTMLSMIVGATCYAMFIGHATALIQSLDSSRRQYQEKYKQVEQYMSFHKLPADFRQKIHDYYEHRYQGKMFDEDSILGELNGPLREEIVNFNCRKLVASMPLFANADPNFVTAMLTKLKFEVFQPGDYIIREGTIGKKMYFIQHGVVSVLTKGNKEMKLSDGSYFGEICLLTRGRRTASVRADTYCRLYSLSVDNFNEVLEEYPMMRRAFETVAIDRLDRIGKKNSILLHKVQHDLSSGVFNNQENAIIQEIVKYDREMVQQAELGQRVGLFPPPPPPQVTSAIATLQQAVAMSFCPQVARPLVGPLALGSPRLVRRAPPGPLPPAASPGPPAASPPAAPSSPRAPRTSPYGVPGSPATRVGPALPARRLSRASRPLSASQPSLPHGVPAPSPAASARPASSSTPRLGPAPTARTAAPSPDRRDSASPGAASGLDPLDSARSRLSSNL
Experimental: as §2
as §3, with “The oocytes were exposed to collagenase A (3 mg/ml; Roche, Grenzach-Wyhlen, Germany) for 105 min in Ca^2+-free Barth’s solution containing (in mM) 82.5 NaCl, 2 KCl, 1 MgCl2 2, and 5 Hepes, pH 7.4. Oocytes” for “Oocytes”
as §4, §5

[6] = homotetrameric CNGA2 channels, late current at +10 mV, mean
[7] = homotetrameric CNGA2 channels, mean

T2 sequence (Q64359 whole entry, one chain of several): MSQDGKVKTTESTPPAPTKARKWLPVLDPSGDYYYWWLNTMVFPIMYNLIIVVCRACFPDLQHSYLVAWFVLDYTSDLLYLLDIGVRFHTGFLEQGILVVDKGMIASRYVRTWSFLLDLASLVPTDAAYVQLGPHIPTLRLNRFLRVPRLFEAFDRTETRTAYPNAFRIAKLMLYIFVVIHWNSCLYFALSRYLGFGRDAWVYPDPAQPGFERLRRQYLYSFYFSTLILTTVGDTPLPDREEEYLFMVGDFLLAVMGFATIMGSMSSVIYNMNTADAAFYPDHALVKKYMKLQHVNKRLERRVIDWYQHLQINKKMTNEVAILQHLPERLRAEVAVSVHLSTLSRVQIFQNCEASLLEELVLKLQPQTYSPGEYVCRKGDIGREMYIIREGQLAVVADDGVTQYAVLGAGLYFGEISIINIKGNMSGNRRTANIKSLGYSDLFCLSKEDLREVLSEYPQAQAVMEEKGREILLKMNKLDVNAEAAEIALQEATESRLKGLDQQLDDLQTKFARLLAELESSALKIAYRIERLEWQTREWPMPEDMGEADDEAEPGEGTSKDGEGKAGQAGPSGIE
T2 sequence (A0A8I5ZN27 1-858 isoform A0A8I5ZN27-2, one chain of several): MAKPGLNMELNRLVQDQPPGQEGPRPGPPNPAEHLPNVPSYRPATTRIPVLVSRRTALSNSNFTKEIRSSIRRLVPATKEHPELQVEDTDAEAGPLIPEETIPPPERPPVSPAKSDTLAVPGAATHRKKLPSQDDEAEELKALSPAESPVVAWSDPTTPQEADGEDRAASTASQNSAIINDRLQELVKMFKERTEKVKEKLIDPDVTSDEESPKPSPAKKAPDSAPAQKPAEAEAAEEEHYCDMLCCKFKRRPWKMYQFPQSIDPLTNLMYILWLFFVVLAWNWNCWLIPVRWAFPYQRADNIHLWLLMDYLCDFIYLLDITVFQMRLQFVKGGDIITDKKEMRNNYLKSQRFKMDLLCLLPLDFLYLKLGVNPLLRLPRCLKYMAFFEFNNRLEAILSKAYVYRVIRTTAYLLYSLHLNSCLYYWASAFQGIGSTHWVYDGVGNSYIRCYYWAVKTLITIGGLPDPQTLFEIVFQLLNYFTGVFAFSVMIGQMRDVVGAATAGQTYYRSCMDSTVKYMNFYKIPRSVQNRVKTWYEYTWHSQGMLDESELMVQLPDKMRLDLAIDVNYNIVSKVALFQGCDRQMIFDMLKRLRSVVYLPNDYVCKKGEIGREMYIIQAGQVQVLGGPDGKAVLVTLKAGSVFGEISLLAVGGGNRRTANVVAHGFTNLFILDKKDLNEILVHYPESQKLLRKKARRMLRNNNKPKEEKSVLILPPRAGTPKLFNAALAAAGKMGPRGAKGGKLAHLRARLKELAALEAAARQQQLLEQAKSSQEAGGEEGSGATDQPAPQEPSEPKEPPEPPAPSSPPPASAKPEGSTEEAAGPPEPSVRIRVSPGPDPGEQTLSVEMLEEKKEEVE
T4 sequence (Q64359 whole entry, one chain of several): as the sequence (Q64359 whole entry, one chain of several) above
T4 sequence (A0A8I5ZN27 1-858 isoform A0A8I5ZN27-2, one chain of several): as the sequence (A0A8I5ZN27 1-858 isoform A0A8I5ZN27-2, one chain of several) above

SMILES	EC50 [1] [nM]	EC50 [2, 6] [nM]	H (Hill coefficient) [2, 7]	EC50 [3] [nM]	H (Hill coefficient) [3]	deactivation time constant τd compared to cGMP (1G) (CNGA2 channels; all tested concentrations)	activation time constant τa compared to cGMP (1G) (CNGA2 channels; at concentrations lower than 1 µM)	deactivation compared to the effect with CNGA2 channels ([4]; 10 µM)	activation time constant τa ([4]; low concentrations)	H (Hill coefficient) [5]	EC50 [5] [nM]	EC50 ([2]; CNGA2 channels, numeric mean values of box plots (Fig. 2a,b, Fig. 3) and text) [nM]
Nc1nc2c(nc(Sc3ccc(Cl)cc3)n2C2O[C@@H]3COP(=O)(O)O[C@H]3[C@H]2O)c(=O)[nH]1 (stereo in doubt) [8-pCPT-cGMP]	73	–	–	–	–	–	–	–	–	–	–	–
CC(=O)NCCCCCCSc1nc2c(=O)[nH]c(N)nc2n1C1OC2COP(=O)(O)OC2C1O (stereo not shown) [5G, 8-(Ac)AHT-cGMP]	–	80	2.7	230	2.0	approximately an order of magnitude increased	larger	slowed to a much lower degree	not affected	–	–	–
CC(=O)NCCCCCCCCCCSc1nc2c(N)ncnc2n1C1OC2COP(=O)(O)OC2C1O (stereo not shown) [7A, 8-(Ac)ADT-cAMP]	–	2300	2.4	470	2.7	–	–	–	–	1.5	14.6	–
CC(=O)NCCOCCOCCSc1nc2c(N)ncnc2n1C1OC2COP(=O)(O)OC2C1O (stereo not shown) [8A, 8-(Ac)APT-cAMP]	–	24900	2.4	6000	2.2	–	–	–	–	0.9	144	–
CC(=O)NCC(=O)NCCSc1nc2c(N)ncnc2n1C1OC2COP(=O)(O)OC2C1O (stereo not shown) [10A, 8-(Ac)AGET-cAMP]	–	34200	2.1	6600	2.2	–	–	–	–	1.5	96.7	34300
